Source: PubChem BioAssay AID652041 (Broad Institute, 2013)
Active and inactive are the calls of the source.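 The calls were made as follows: active = fitted curve reaching a 35% signal drop at a concentration under 10 µM, within twice the top tested dose; inconclusive = no clear call, values can overlap the other calls; inactive = the rest, including activity opposite to the expected direction.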

assay: growth inhibition of P. falciparum HB3, dose response, HB3 strain, red blood cells, SYBR Green, cherry-picked (AID 652041);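 also: parasites exposed to compound for 72 hours before the DNA read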; settings: P. falciparum HB3 in RBCs, SYBR Green DNA fluorescence; at 50 µM (top of the series)

| Compound | activity change, negative = inhibition |
| --- | --- |
| CC1CCN(c2ccc3c(c2)S(=O)(=O)c2ccccc2C3=O)CC1 | -1.13% (inactive) |
| Cc1nc2ccc(C(=O)NCc3ccc4c(c3)OCO4)cc2s1 | -24.7% (inactive) |
| CC(C)CSc1n[nH]c(=S)s1 | 1.38% (inactive) |
| O=C1N(c2ccc(Cl)cc2)C(c2cccnc2)N2CCCN12 (stereo unspecified) | -10.4% (inactive) |
| CC(C)NC(=O)NC(=O)COC(=O)c1ccc([N+](=O)[O-])cc1Cl | -11.6% (inactive) |
| Nc1nc2sc3c(c2c(=O)s1)CCCC3 | -20.8% (inactive) |
| CCn1c(CNc2ccc(Cl)cc2)nnc1SCc1ccccc1 | -25.3% (inactive) |
| CCCn1c2ccccc2c2cc(C(=O)O)ccc21 | -6.37% (inactive) |
| COc1cc2c(c(OC)c1OC)-c1ccc(O)c(=O)cc1[C@@H](NC(C)=O)CC2 | -18.5% (inactive) |
| Oc1c(Br)cc(-c2ccccc2)cc1Br | -16% (inactive) |
| O=C(O)c1c(NC(=O)N2CCCC2)sc2c1CCCC2 | -0.929% (inactive) |
| CCOc1ccc(N/N=C(/C#N)C(N)=O)cc1 | -12.5% (inactive) |
| CCCOc1ccc(S(=O)(=O)n2cc(F)c(=O)[nH]c2=O)cc1 | -21.3% (inactive) |
| CC1(C)CC(=O)C(N=Nc2ccc3ncsc3c2)=C(O)C1 | -23.1% (inactive) |
| COC(OC)c1ccc(C#N)c(SCc2ccccc2)n1 | -17.5% (inactive) |
| Cc1cc(NS(=O)(=O)c2ccc(C3CCCCC3)cc2)no1 | 0.534% (inactive) |
| Clc1ccc(-c2n[nH]c3c2CCC3)cc1Cl | -19.3% (inactive) |
| c1ccc(Cn2cc(-c3cccnc3)cn2)cc1 | -23.9% (inactive) |
| CCOC(=O)c1ccc(N2C(=O)CC(N3CCC(O)(c4ccc(Cl)cc4)CC3)C2=O)cc1 (stereo unspecified) | -5.74% (inactive) |
| COc1ccc(N(C(=O)c2ccncc2)S(=O)(=O)c2ccc(F)cc2)cc1 | -13.3% (inactive) |
| COc1cccc(C(C)=C2SC(=S)NC2=O)c1 | -7.61% (inactive) |
